According to article PMC7206119, “RIP1 inhibition blocks inflammatory diseases but not tumor growth or metastases” (Cell Death and Differentiation, 2019):

What was measured:
Assay in all cases: biochemical
Parameters in all cases: DiscoverX kinase panel, active-site competition binding (KINOMEscan type), percent of control at one concentration
Settings in all cases: competition binding, percent of control
ADCK4 = target: T1, ADCK4 (Homo sapiens, UniProt Q96D53)
T1 construct: gene COQ8B

BRAF = BRAF (Homo sapiens, UniProt P15056)
CDK2 = CDK2 (Homo sapiens, UniProt P24941)
DYRK2 = DYRK2 (Homo sapiens, UniProt Q92630)
Chain of DYRK2 (Q92630 whole entry): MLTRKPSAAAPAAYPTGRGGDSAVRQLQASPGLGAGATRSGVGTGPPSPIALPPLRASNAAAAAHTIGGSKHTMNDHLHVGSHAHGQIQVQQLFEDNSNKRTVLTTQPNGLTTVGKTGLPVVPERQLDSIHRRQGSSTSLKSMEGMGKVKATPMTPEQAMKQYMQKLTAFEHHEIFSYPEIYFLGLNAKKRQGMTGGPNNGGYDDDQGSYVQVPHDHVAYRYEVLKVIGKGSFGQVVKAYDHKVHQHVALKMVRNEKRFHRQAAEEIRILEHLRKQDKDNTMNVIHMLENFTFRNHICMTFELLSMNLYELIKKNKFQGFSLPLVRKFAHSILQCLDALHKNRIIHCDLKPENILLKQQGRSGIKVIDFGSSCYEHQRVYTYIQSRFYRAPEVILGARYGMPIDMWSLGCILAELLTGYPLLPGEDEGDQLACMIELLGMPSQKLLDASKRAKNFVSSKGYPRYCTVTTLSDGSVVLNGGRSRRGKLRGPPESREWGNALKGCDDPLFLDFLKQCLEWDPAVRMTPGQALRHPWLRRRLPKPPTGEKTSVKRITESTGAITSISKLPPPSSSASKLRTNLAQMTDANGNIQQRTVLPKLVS

ERK1 = target: T2, ERK1 (Homo sapiens, UniProt P27361)
T2 construct: gene MAPK3

ERK2 = target: T3, ERK2 (Homo sapiens, UniProt P28482)
T3 construct: gene MAPK1

GAK = GAK (Homo sapiens, UniProt O14976)
Chain of GAK (O14976 whole entry): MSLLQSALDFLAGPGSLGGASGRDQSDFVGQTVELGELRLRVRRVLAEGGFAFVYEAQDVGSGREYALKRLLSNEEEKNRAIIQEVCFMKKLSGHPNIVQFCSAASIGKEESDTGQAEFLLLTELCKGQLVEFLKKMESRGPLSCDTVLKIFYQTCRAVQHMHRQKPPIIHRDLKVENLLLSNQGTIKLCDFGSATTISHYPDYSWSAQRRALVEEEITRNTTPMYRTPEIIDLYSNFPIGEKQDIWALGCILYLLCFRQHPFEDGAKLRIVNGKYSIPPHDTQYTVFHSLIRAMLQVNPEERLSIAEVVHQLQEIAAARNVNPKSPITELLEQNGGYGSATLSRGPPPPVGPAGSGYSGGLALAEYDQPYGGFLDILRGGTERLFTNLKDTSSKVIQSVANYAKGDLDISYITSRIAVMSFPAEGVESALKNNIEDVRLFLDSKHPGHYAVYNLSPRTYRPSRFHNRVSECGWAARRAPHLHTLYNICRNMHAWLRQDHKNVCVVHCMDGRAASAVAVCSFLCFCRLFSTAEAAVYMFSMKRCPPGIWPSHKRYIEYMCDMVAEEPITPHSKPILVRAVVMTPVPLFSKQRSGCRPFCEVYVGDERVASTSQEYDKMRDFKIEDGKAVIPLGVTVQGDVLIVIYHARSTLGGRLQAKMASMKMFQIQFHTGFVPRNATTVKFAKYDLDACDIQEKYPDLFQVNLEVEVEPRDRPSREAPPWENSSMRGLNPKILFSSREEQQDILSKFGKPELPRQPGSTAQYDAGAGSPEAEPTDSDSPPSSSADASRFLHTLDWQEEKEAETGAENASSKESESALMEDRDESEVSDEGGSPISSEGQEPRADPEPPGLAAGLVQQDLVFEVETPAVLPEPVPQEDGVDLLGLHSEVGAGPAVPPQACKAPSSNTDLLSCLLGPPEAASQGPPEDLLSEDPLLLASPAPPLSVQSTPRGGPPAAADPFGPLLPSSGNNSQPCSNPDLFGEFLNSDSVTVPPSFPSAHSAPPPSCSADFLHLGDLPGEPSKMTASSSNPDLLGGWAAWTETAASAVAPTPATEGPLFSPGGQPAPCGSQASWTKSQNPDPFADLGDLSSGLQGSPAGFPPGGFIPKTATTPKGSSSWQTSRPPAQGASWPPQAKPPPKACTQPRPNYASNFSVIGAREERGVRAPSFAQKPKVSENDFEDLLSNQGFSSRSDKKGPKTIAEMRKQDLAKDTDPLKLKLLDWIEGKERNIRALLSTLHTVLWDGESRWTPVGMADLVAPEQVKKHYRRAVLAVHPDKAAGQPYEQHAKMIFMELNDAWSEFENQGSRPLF

[1] = target: T4, JAK1(JH1domain-catalytic) (Homo sapiens, UniProt P23458)
T4 construct: JH1domain-catalytic
T4 sequence (P23458 whole entry): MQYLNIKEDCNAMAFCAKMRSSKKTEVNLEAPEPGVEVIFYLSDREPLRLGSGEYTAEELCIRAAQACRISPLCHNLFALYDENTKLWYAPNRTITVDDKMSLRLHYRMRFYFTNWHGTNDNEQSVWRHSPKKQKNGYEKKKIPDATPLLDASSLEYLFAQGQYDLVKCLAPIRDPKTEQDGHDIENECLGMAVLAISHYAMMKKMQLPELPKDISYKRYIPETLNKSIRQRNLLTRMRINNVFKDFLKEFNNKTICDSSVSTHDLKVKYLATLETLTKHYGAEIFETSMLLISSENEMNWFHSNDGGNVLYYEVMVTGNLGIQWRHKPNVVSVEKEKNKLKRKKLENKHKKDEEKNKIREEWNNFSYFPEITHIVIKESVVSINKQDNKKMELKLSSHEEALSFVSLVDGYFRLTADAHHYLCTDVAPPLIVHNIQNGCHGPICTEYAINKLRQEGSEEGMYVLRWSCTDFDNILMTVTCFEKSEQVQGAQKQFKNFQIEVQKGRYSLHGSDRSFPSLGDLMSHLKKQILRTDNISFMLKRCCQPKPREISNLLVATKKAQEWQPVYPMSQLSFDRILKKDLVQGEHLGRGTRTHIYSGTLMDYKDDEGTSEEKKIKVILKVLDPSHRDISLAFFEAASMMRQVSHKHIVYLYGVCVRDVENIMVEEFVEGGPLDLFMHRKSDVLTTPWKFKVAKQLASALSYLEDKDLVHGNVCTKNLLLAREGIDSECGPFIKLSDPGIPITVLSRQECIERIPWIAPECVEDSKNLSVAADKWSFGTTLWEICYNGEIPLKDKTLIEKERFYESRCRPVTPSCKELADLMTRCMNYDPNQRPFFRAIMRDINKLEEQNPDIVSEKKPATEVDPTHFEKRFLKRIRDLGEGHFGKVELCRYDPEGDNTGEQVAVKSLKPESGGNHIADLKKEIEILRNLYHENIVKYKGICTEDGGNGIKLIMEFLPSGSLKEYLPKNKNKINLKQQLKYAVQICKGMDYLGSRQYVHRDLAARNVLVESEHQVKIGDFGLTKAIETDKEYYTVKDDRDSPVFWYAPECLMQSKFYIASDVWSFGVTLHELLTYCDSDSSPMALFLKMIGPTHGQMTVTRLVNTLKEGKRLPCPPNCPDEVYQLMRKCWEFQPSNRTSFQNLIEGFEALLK

LIMK2 = LIMK2 (Homo sapiens, UniProt P53671)
Chain of LIMK2 (P53671 whole entry): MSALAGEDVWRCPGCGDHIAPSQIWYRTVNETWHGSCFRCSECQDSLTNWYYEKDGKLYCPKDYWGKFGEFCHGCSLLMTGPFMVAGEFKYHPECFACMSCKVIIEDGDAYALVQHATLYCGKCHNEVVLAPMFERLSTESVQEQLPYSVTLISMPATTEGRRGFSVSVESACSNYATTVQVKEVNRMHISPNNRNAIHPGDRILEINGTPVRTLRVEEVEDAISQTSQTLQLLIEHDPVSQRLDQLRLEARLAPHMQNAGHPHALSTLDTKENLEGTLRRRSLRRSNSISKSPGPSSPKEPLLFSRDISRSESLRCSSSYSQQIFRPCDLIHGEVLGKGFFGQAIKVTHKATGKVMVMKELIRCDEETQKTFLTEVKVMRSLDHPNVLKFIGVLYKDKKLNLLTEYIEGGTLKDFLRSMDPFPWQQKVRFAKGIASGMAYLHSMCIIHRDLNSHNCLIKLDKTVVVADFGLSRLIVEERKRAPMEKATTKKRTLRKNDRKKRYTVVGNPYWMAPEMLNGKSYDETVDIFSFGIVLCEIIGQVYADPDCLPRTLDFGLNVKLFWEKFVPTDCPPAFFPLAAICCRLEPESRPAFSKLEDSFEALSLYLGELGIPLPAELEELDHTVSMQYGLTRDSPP

MAPKAPK2 = MAPKAPK2 (Homo sapiens, UniProt P49137)
MELK = MELK (Homo sapiens, UniProt Q14680)
MST3 = target: T5, MST3 (Homo sapiens, UniProt Q9Y6E0)
T5 construct: gene STK24

MST4 = target: T6, MST4 (Homo sapiens, UniProt Q9P289)
T6 construct: gene STK26

PIK4CB = target: T7, PIK4CB (Homo sapiens, UniProt Q9UBF8)
T7 construct: gene PI4KB

PKAC-alpha = target: T8, PKAC-alpha (Homo sapiens, UniProt P17612)
T8 construct: gene PRKACA

[2] = target: T9, RSK4(Kin.Dom.1-N-terminal) (Homo sapiens, UniProt Q9UK32)
T9 construct: gene RPS6KA6; Kin.Dom.1-N-terminal

SBK1 = SBK1 (Homo sapiens, UniProt Q52WX2)
Chain of SBK1 (Q52WX2 whole entry): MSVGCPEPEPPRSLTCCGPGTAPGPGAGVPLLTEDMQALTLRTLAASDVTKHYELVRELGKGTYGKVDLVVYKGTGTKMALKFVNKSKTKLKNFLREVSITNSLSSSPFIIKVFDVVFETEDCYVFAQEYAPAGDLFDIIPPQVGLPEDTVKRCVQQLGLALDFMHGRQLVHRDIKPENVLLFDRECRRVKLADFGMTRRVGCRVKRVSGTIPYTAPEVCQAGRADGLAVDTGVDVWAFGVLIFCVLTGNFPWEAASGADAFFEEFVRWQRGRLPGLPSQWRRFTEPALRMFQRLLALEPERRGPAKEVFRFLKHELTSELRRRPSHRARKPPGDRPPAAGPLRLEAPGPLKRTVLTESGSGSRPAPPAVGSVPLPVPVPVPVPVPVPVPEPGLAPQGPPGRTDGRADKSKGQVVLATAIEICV

TSSK1B = TSSK1B (Homo sapiens, UniProt Q9BXA7)
WNK4 = WNK4 (Homo sapiens, UniProt Q96J92)
YANK1 = target: T10, YANK1 (Homo sapiens, UniProt Q8WU08)
T10 construct: gene STK32A

p38-delta = target: T11, p38-delta (Homo sapiens, UniProt O15264)
T11 construct: gene MAPK13
T11 sequence (O15264 whole entry): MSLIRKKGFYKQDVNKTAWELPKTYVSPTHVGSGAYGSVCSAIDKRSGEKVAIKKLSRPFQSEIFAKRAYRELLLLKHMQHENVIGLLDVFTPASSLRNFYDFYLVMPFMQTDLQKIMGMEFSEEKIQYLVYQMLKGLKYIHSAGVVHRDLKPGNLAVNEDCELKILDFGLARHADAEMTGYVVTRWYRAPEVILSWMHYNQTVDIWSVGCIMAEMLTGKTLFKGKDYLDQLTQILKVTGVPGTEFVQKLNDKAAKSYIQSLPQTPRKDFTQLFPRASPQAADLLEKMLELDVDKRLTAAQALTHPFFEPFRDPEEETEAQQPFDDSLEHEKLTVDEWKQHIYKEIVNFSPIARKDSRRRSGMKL

T1 sequence (Q96D53 whole entry): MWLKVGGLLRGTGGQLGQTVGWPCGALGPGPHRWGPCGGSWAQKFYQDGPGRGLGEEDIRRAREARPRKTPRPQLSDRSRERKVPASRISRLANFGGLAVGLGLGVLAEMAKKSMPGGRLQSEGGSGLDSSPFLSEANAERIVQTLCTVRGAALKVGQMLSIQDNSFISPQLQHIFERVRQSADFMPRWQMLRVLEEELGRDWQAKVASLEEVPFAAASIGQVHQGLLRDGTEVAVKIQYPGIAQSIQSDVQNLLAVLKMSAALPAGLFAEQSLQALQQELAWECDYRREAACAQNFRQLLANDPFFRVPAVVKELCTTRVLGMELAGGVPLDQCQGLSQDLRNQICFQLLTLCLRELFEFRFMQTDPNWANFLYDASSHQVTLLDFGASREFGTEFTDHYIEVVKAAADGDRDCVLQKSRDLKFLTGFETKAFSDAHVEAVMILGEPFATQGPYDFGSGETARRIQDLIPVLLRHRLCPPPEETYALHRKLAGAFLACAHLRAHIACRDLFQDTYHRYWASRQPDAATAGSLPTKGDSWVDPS

SMILES: COc1cc2c(cn1)N(C)C(=O)[C@@H](NC(=O)c1nc3n(n1)[C@H](c1ccccc1)CC3)CC2 [GNE684, (S)-N-((S)-7-methoxy-1-methyl-2-oxo-2,3,4,5-tetrahydro-1H-pyrido[3,4-b]azepin-3-yl)-5-phenyl-6,7-dihydro-5H-pyrrolo[1,2-b][1,2,4]triazole-2-carboxamide]
- remaining binding at 10 µM (ADCK4): 100%
- remaining binding at 10 µM (BRAF): 98%
- remaining binding at 10 µM (CDK2): 100%
- remaining binding at 10 µM (DYRK2): 87%
- remaining binding at 10 µM (ERK1): 96%
- remaining binding at 10 µM (ERK2): 100%
- remaining binding at 10 µM (GAK): 92%
- remaining binding at 10 µM [1]: 100%
- remaining binding at 10 µM (LIMK2): 32%
- remaining binding at 10 µM (MAPKAPK2): 100%
- remaining binding at 10 µM (MELK): 93%
- remaining binding at 10 µM (MST3): 99%
- remaining binding at 10 µM (MST4): 100%
- remaining binding at 10 µM (PIK4CB): 98%
- remaining binding at 10 µM (PKAC-alpha): 73%
- remaining binding at 10 µM [2]: 100%
- remaining binding at 10 µM (SBK1): 100%
- remaining binding at 10 µM (TSSK1B): 95%
- remaining binding at 10 µM (WNK4): 100%
- remaining binding at 10 µM (YANK1): 100%
- remaining binding at 10 µM (p38-delta): 92%
